Measurements from patent US20220305003A1, “METHODS OF TREATING CANCER WITH AN INHIBITOR OF ZNF827” (CHILDREN'S MEDICAL RESEARCH INSTITUTE, priority 2019, published 2022).

Key:
Type in all cases: cell-based
U-2 OS cells [1] = experiment: RPA foci by immunofluorescence in U-2 OS cells
Procedure: (§1) Topotecan and aphidicolin were used in this study. For experiments where they were used to cause replication stress and DNA damage, cells were treated with topotecan 2 μg/mL for either 1 hour or 24 hours, or aphidicolin 1 μM for 20 hours. For replication fork stalling induction in the PCNA colocalisation experiments, cells were treated with aphidicolin 0.4 μM for 6-8 hours. Topotecan and aphidicolin were dissolved in DMSO. DMSO was used as a control.
(§2) Cells were transfected using Lipofectamine RNAiMAX transfection reagent (ThermoFisher Scientific) with an siRNA concentration of […]. For transfection in a 75 cm^2flask, 3 mL reduced serum medium Opti-MEM (Gibco) was combined with 15 μL of 20 μM siRNA, mixed gently to cover the surface area of the flask and incubated at room temperature for 5 minutes. 30 μL of Lipofectamine RNAiMAX transfection reagent was then added to the mixture, and mixed and incubated for a further 15 minutes at room temperature. Meanwhile, cells to be transfected were trypsinised, resuspended in DMEM supplemented with 10% FCS, and counted using a Beckman Coulter cell counter. 0.8-1×10^6 cells in DMEM supplemented with 10% FCS were directly pipetted onto the transfection mixture in the flask, and shaken gently to mix. Additional DMEM supplemented with 10% FCS was added to the flask up to a total volume of 15 mL. Cells were harvested 72 hours post-transfection for knockdown validation and subsequent experiments.
(§3) Cells cultured on coverslips were fixed in 2% paraformaldehyde in PBS at room temperature for 10 minutes. Cells fixed on coverslips were rinsed with deionised water, and then permeabilised using KCM buffer (120 mM potassium chloride, 20 mM NaCl, 10 mM Tris, pH 7.5, 0.1% Triton X-100) at room temperature for 10 minutes. Coverslips were blocked with antibody diluent buffer (ABDIL—20 mM Tris-Cl, pH 7.5, 2% BSA, 0.2% fish gelatine, 150 mM NaCl, 0.1% Triton X-100, 0.1% sodium azide) containing 100 μg/mL RNase A at room temperature for one hour. […] Quantitated analysis was conducted by automation with CellProfiler (Broad Institute).

HT1080 cells [2] = experiment: RPA foci by immunofluorescence in HT1080 cells
Procedure: as §1, §2, §3

HT1080 cells [3] = experiment: Cell cycle analysis by flow cytometry (propidium iodide)
Procedure: For cell cycle analysis, cells were trypsinised, counted and collected by centrifugation at 1000 rpm for 5 minutes. 1×10^6 cells were resuspended in 0.5 mL PBS, then fixed in 5 mL of ice-cold 70% ethanol drop by drop whilst being gently vortexed. The cells were incubated on ice for 30 minutes then stored at −20° C. for 2-7 days until propidium iodide staining. Prior to propidium iodide (Sigma) staining, the ethanol fixed cells were centrifuged at 300×g for 6 minutes to remove ethanol, washed once with PBS, and resuspended in 0.5 mL PBS per 1×10^6 cells. The fixed cells were treated with 0.5 mg of RNase (Sigma) and 25 μg of propidium iodide at 37° C. for 30 minutes, and then allowed to return to room temperature in the dark for 10 minutes. Labelled cells were analysed using the BD FACSCanto Flow Cytometer (BD Biosciences) containing a blue air cooled 488 nm argon laser to excite propidium iodide. Between 10 000-15 000 events were collected at an approximate flow rate of 200 events/second. The forward scatter (FSC, size) and side scatter (SSC, internal granularity) of each cell was recorded. To discriminate and eliminate cell debris and doublets, the pulse area (FL2-A) was plotted against the pulse width (FL2-W). Doublets identified as cells with 4N DNA content and increasing pulse width were eliminated. A histogram displaying the cell counts against the FL2-A was used to calculate the percentage of cells in each cell cycle phase, as well as the percentage of non-viable cells. Data analysis was conducted using BD FACS Diva software (BD Bioscience).

U-2 OS cells [4] = experiment: IncuCyte live cell growth and apoptosis (Nucview488 caspase 3) assay
Procedure: Considering the effects of ZNF827 depletion on DNA replication and the cell cycle, the impact of ZNF827 on cell proliferation and cell viability was examined. Live cell assays were performed on U-2 OS cells in the IncuCyte® to monitor real-time cell proliferation by confluency and cell viability using Nucview488, a fluorescent reporting dye for caspase 3 activity that allows quantitative measurement of apoptotic activity. Cells were treated with topotecan or DMSO control for the first half of the assay and treatments were removed for the remaining time.
Cells were seeded at 20-30% in a 96-well black plate with clear bottom (3603, Corning) and left to adhere at 37° C. with 10% CO2 for at least 3 hours. The media was aspirated and replaced with phenol red free media supplemented 2 μM Nucview® 488 Caspase-3 substrate (Biotium) and placed into the IncuCyte® for baseline imaging without drug treatment. Topotecan 2 μg/mL or DMSO control was added to the wells, and incubated at 37° C. with 10% CO2 for 1 hour. The media was then aspirated, cells were washed carefully once with warm PBS, and the media replaced with phenol red free media supplemented 2 μM Nucview® 488 Caspase-3 substrate (Biotium). The plate was then placed back into IncuCyte®, imaged immediately post drug treatment, and then every 4 hours for 72 to 84 hours in the phase and green channels. Image analysis was performed with the IncuCyte® Zoom software. Cell growth was measured as % confluency over time, and apoptotic activity as green object confluence/area over time.

[5] = 72 hr siRNA knockdown of ZNF827 in topotecan-treated cells (2 μg/mL, 24 hr)
[6] = agent alone (topotecan 2 μg/mL 24 hr, or 72 hr siRNA knockdown in unchallenged cells)
[7] = agent alone (topotecan 2 μg/mL 1 hr, or 72 hr siRNA knockdown in unchallenged cells)
[8] = agent alone (topotecan 2 μg/mL 1 hour then removed, or ZNF827 depletion with DMSO)
[9] = agent alone (topotecan 2 μg/mL, or ZNF827 depletion vs scrambled control)

siZNF827: Stealth RNAi siRNA ZNF827HSS135819 duplex oligoribonucleotides (Invitrogen), SEQ ID NO: 12 and 13 (chain 1 GGGCAGUCUUCUGGCUGAGAAAUCA; chain 2 UGAUUUCUCAGCCAGAAGACUGCCC; listed as RNA, further chemistry not given here)
total nuclear RPA foci (U-2 OS cells [1]; [5]): did not cause an observable increase in overall RPA foci | total nuclear RPA foci (U-2 OS cells [1]; [6]): substantially increased the total number of nuclear RPA foci | total nuclear RPA foci (HT1080 cells [2]; [5]): significantly greater increase in overall nuclear RPA foci | total nuclear RPA foci (HT1080 cells [2]; [6]): did not change the total number of nuclear RPA foci | cell cycle profile (HT1080 cells [3]; 72 hr siRNA knockdown in conjunction with topotecan 2 μg/mL 1 hr): conspicuous G1 arrest while reducing the G2/M arrest | cell cycle profile (HT1080 cells [3]; [7]): subtle increase in S phase cells accompanied by a reduction in G2/M cells | cell proliferation (% confluency over time) (U-2 OS cells [4]; ZNF827 depletion in conjunction with topotecan 2 μg/mL): completely abrogated cell proliferation | cell proliferation (% confluency over time) (U-2 OS cells [4]; [8]): reduced cell proliferation, surprisingly to a similar efficacy as topotecan | apoptotic activity (Nucview488 caspase 3) (U-2 OS cells [4]; [9]): significantly higher apoptotic activity compared to scrambled control | apoptotic activity (Nucview488 caspase 3) (U-2 OS cells [4]; combination of ZNF827 depletion and topotecan, compared with topotecan alone): exceeded markedly

CC[C@@]1(O)C(=O)OCc2c1cc1n(c2=O)Cc2cc3c(CN(C)C)c(O)ccc3nc2-1 [topotecan]
total nuclear RPA foci (U-2 OS cells [1]; [6]): greatly induced RPA foci | total nuclear RPA foci (HT1080 cells [2]; [6]): RPA foci only became visible upon topotecan treatment | cell cycle profile (HT1080 cells [3]; [7]): distinct G2/M arrest | cell proliferation (% confluency over time) (U-2 OS cells [4]; [8]): effectively inhibited cell growth | apoptotic activity (Nucview488 caspase 3) (U-2 OS cells [4]; [9]): much greater apoptotic activity
